How the values were obtained:
[1] = system: SNU449 xenograft; settings: nude mice, lenvatinib 4 mg/kg, gefitinib 80 mg/kg, about 27 days
[2] = target: FGFR2 (Homo sapiens, UniProt P21802); settings: cited from earlier work
[3] = system: SNU449 cells; test: EGFR shRNA knockdown with lenvatinib, proliferation; format: cell-based, human; settings: SNU449 cells with EGFR shRNA vectors, about 10 days
Procedure: FIG. 1. […] Cell growth was assessed by a colony formation assay. […] Viability was assessed by CellTiter-Blue assays. (c) The level of EGFR knockdown was determined by western blot for three independent shRNAs. HSP90 protein level served as a loading control.
After this, genomic DNA was isolated from both treated and untreated cells, and the relative abundance of gRNA was determined by next generation sequencing of the bar code contained in each gRNA vector in three biological replicates as described (Evers et al., 2016. Nat Biotechnol 34: 631-3).

[4] = target: VEGFR family; settings: cited from earlier work
[5] = system: EGFR; test: western blot with phospho-protein-specific antibodies, EGFR activation; format: cell-based, human; settings: three EGFR-high liver cancer cell lines
Procedure: (§1) FIG. 3. […] Activation of EGFR and ERK1/2 was analyzed. HSP90 served as a control.

[6] = system: advanced HCC; settings: first-line treatment of advanced HCC; cited from earlier work
[7] = system: ERK1/2; test: western blot with phospho-protein-specific antibodies, ERK1/2 activation; format: cell-based, human; settings: three EGFR-high liver cancer cell lines
Procedure: as §1

[8] = system: advanced HCC patients; settings: clinical trials; cited from earlier work

Chain of FGFR2 (P21802 22-821, species assumed): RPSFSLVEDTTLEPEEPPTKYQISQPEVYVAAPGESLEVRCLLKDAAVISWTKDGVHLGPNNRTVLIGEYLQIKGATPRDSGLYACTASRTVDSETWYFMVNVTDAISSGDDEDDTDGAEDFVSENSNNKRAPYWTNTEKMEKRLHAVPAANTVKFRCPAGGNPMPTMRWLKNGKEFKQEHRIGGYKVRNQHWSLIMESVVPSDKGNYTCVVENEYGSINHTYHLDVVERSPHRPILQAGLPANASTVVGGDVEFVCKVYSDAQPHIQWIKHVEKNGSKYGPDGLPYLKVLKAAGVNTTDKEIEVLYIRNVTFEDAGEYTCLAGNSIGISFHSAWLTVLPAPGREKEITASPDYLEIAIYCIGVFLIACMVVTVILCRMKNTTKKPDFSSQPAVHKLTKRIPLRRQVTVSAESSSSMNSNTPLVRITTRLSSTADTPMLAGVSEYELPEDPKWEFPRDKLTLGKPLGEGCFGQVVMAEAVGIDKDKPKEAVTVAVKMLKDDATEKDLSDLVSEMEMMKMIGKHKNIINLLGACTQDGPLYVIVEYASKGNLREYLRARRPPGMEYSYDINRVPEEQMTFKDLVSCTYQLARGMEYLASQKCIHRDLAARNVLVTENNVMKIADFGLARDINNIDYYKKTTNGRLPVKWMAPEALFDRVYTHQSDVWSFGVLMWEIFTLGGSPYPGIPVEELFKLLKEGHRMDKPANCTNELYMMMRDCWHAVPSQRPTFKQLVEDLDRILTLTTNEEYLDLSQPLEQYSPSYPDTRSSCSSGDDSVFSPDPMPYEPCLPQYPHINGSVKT

SMILES | tumor growth / antitumor effect [1] | Ki [2] [nM] | proliferation with suppression of EGFR (shRNA) in combination [3] | Ki [4] [nM] | Tyr 1068 phosphorylation of EGFR (activation of the receptor) [5] | overall survival [6] [months] | phosphorylation (activation) of ERK1/2 [7] | improvement of survival compared to placebo [8]
COc1cc2ncnc(Nc3ccc(F)c(Cl)c3)c2cc1OCCCN1CCOCC1 [gefitinib, N-(3-chloro-4-fluorophenyl)-7-methoxy-6-(3-morpholin-4-ylpropoxy)quinazolin-4-amine] | little antitumor effect |  |  |  |  |  |  | 
COc1cc2nccc(Oc3ccc(NC(=O)NC4CC4)c(Cl)c3)c2cc1C(N)=O [lenvatinib, 4-[3-chloro-4-(cyclopropylcarbamoylamino)phenoxy]-7-methoxyquinoline-6-carboxamide] | little antitumor effect | 8.21 | marked inhibition of proliferation | 1 | strong increase | 13.6 | strong increase | 
CNC(=O)c1cc(Oc2ccc(NC(=O)Nc3ccc(Cl)c(C(F)(F)F)c3)cc2)ccn1 [sorafenib, 4-[4-[[4-chloro-3-(trifluoromethyl)phenyl]carbamoylamino]phenoxy]-N-methylpyridine-2-carboxamide] |  |  |  |  |  | 12.3 |  | less than 3 months

Reference: patent publication US20220280499A1, “NOVEL DRUG COMBINATIONS FOR TREATMENT OF A CARCINOMA” (Stichting Het Nederlands Kanker Instituue-Antoni van …, priority 2019, published 2022)
